Reference: US12478066B2, “Pesticidal mixtures” (BASF SE, priority 2019, dated 2025)

Tests used:
Assay type in all cases: cell-based
[1] = system: Rhynchosporium secalis; test: Microtest: activity against Rhynchosporium secalis (RHYNSE); conditions: 7 days after inoculation
Description: (§1) The active compounds were formulated separately as a stock solution having a concentration of 10000 ppm in dimethyl sulfoxide.
(§2) The stock solutions were mixed according to the ratio, pipetted onto a micro titer plate (MTP) and diluted with water to the stated concentrations. A spore suspension of Rhynchosporium secalis in an aqueous biomalt or yeast-bactopeptone-glycerine or DOB solution was then added. The plates were placed in a water vapor-saturated chamber at a temperature of 18° C. Using an absorption photometer, the MTPs were measured at 405 nm 7 days after the inoculation.
(§3) The measured parameters were compared to the growth of the active compound-free control variant (100%) and the fungus-free blank value to determine the relative growth in % of the pathogens in the respective active compounds.
(§4) These percentages were converted into efficacies.
(§5) An efficacy of 0 means that the growth level of the pathogens corresponds to that of the untreated control; an efficacy of 100 means that the pathogens were not growing.
(§6) The expected efficacies of active compound mixtures were determined using Colby's formula [R. S. Colby, “Calculating synergistic and antagonistic responses of herbicide combinations”, Weeds 15, 20-22 (1967)] and compared with the observed efficacies.

[2] = system: Microdochium nivale; test: Microtest: activity against Microdochium nivale (MONGNI); conditions: 7 days after inoculation
Description: as §1
as §2, with “Microdochium nivale” for “Rhynchosporium secalis”
as §3, §4, §5, §6

[3] = system: Qoi resistant isolate of Septoria tritici; test: Microtest: activity against leaf blotch on wheat caused by Septoria tritici (SEPTTR), Qoi resistant isolate; conditions: 7 days after inoculation
Description: as §1
as §2, with “a Qoi resistant isolate of Septoria tritici” for “Rhynchosporium secalis”
as §3, §4, §5, §6

[4] = system: Leptosphaeria nodorum; test: Microtest: activity against wheat leaf spots caused by Leptosphaeria nodorum (LEPTNO); conditions: 7 days after inoculation
Description: as §1
as §2, with “Leptosphaeria nodorum” for “Rhynchosporium secalis”
as §3, §4, §5, §6

[5] = system: Qoi resistant isolate of Pyrenophora teres; test: Microtiter test: activity against net blotch Pyrenophora teres on barley (PYRNTE), Qoi resistant isolate; conditions: 0.063 ppm, 7 days after inoculation
Description: as §1
as §2, with “a Qoi resistant isolate of Pyrenophora teres” for “Rhynchosporium secalis”
as §3, §4, §5, §6

Structure (SMILES) | Observed efficacy ([1]; 0.063 ppm) | Observed efficacy ([2]; 0.004 ppm) | Observed efficacy ([2]; 0.016 ppm) | Observed efficacy ([2]; 0.063 ppm) | Observed efficacy ([3]; 0.016 ppm) | Observed efficacy ([3]; 0.063 ppm) | Observed efficacy ([4]; 0.004 ppm) | Observed efficacy [5] | Observed efficacy ([1]; 0.016 ppm) | Observed efficacy ([3]; 0.004 ppm) | Observed efficacy ([4]; 0.016 ppm)
COc1ccnc(C(=O)N[C@@H](C)C(=O)O[C@@H](C)C(c2ccc(F)cc2)c2ccc(F)cc2)c1OC(C)=O [Florylpicoxamid, [(1S)-2,2-bis(4-fluorophenyl)-1-methyl-ethyl] (2S)-2-[(3-acetoxy-4-methoxy-pyridine-2-carbonyl)amino]propanoate] | 55 | 3 | 18 | 44 | 0 | 12 | 13 | 9 |  |  | 
Cc1cccc(-n2nnn(C)c2=O)c1COc1ccn(-c2ccc(Cl)cc2)n1 [Metyltetraprol, 1-[2-[[1-(4-chlorophenyl)pyrazol-3-yl]oxymethyl]-3-methyl-phenyl]-4-methyl-tetrazol-5-one] |  | 1 | 32 |  | 0 | 1 |  | 11 | 14 | 1 | 49
